Measurements reported in patent US20080051454A1, “Compositions and methods for transient receptor potential vanilloid (TRPV) channel mediated treatments” (The Board of Trustees Operating Michigan State University, priority 2006, published 2008).

What was measured:
TRPV1−/− hearts = assay: Preconditioning (PC) protection against I/R in Langendorff hearts with receptor antagonists, TRPV1-null; design: species or system mouse; conditions: CAPZ 10^−7 M, CGRP8-37 10^−6 M, RP67580 10^−7 M
Description: Male TRPV1 gene knockout (TRPV1-/-) strain B6.129S[…][…]^tm1Jul and matching control wild type (WT) strain C57BL/6J mice were used (Jackson Laboratory, Bar Harbor, Me.). Mice were heparinized (500 U/kg i.p.) and anesthetized with pentobarbital sodium (50 mg/kg i.p.). […] The distal end of the catheter was connected to a […] Performance Analyzer via a pressure transducer. Coronary flow (CF) was continuously measured using an ultrasonic flow probe placed in the aortic perfusion line. Hearts were paced at 400 bpm except during ischemic PC and sustained global ischemia to avoid inducing excessive ventricular tachyarrhythmia during reperfusion, and pacing was reinitiated 2 minutes after reperfusion. Left ventricular developed pressure (LVDP, peak systolic minuses LVEDP) and LV peak positive […]) during isovolumic contraction were used as indices of LV systolic function; LVEDP and the peak negative […] used as indices of LV diastolic function. […] Non-preconditioned hearts were time-matched perfused with the same duration as that of preconditioned hearts. Group 1: Controls. As normal controls (nonischemic), WT and TRPV1-/- hearts were perfused for 130 minutes. For I/R controls, WT and TRPV1-/- hearts were first perfused with Krebs-Henseleit buffer for 55 min (time-matched perfusion of the equilibration period plus the PC period), and subsequently subjected to 30 minutes of no-flow normothermic global ischemia followed by 40-minutes of reperfusion. Group 2: PC. […] The hearts were subjected to 30 minutes of no-flow normothermic global ischemia followed by 40-minutes of reperfusion as that of I/R control groups. Group 3: PC plus capsazepine (CAPZ). […] Two additional concentrations of CAPZ, 10^-6M and 10^-8 M, were used in WT hearts. An additional drug control was added. After a 20-minute equilibration period, WT hearts were perfused with CAPZ (10^-7 M) for 10 minutes without PC, followed by perfusion with Krebs-Henseleit buffer for 25 minutes (time-matched perfusion of the PC period) and then subjected to I/R. Group 4: […] […]

Wistar rats fed HS diet = assay: Blood pressure after i.v. SR141716A or CAPZ in conscious rats fed HS diet (Example I); type: in vivo, rat; conditions: 3 mg/kg iv
Description: Experiments were approved by the Institutional Animals Care and Use Committee. Experiments were performed using male Wistar rats (Charles River Laboratory, Wilmington, Mass.). Rats (6 weeks old) were housed in the animal facility for 1 week before the experiments. Rats were then randomly assigned to a normal-sodium (NS) diet (0.4% of Na+ by weight, Harlan Teklad) or HS (4% of Na+ by weight; Harlan Teklad) for 3 weeks. Rats drank water ad libitum throughout the experiment.
Surgical Preparation and MAP measurements: The rats were anesthetized with ketamine and xylazine (80 and 4 mg/kg intraperitoneally, respectively) for implantation of vascular catheters or with urethane ([…] intraperitoneally) throughout protocol 2. […]
Protocol 1: Rats fed a NS or HS diet were randomly assigned to 5 groups for intravenous injection of vehicle or MethA alone or in combination with SR141716A (a CB1 receptor antagonist), CAPZ (a VR1 receptor antagonist), or the combination of the 2 (n=5 to 8). Baseline MAP and its response to the aforementioned drugs were determined 3 hours after surgery when animals were fully awake and unrestrained as described previously. […]

Oc1cc2c(cc1O)CN(C(=S)NCCc1ccc(Cl)cc1)CCC2 [CAPZ, N-[2-(4-Chlorophenyl)ethyl]-1,3,4,5-tetrahydro-7,8-dihydroxy-2H-2-benzazepine-2-carbothioamide]
effect on these parameters in TRPV1−/− hearts (TRPV1−/− hearts): no effect
duration of transient elevation in blood pressure after injection (Wistar rats fed HS diet): ≤ 7 min
